Measurements as given in patent US20070207971A1 (priority 2006, published 2007).

How the values were obtained:
[1] = molecular target: Clostridium perfringens neuraminidase (Clostridium perfringens, UniProt P10481); format: biochemical; conditions: pH 6.5
[2] = test system: Japanese encephalitis virus (JEV); assay: ELISA selective capturing experiment; format: binding; conditions: mixture of influenza A virus and JEV; anti-JEV antibody
[3] = molecular target: T1, Athrobacter ureafaciens neuraminidase (Paenarthrobacter ureafaciens, UniProt Q5W7Q2); format: biochemical; conditions: pH 6.5
T1 sequence (Q5W7Q2 39-990): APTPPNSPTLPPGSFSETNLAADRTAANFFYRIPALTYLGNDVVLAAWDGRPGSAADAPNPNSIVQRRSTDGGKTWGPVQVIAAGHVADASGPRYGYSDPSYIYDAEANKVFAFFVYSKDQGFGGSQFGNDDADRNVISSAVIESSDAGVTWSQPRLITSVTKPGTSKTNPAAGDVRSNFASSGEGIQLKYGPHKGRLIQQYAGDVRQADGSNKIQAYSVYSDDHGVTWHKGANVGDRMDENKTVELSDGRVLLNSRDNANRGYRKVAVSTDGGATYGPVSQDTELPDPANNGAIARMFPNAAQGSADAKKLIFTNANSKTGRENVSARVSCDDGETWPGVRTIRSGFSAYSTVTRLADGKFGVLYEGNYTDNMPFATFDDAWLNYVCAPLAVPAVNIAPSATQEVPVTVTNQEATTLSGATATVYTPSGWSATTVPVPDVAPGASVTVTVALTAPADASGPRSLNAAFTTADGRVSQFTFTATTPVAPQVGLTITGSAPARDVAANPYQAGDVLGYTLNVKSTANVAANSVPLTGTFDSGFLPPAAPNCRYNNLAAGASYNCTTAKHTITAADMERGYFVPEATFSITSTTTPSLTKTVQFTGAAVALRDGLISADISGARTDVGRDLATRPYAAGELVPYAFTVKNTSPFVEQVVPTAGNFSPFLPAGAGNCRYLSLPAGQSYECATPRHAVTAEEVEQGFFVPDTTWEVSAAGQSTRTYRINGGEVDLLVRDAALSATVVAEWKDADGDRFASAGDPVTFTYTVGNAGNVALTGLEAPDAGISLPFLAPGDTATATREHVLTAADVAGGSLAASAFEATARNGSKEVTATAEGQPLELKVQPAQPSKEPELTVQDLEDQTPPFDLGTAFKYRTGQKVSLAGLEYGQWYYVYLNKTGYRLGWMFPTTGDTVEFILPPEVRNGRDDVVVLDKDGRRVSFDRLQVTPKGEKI

[4] = molecular target: T2, influenza A virus neuraminidase (Influenza A virus, UniProt P03470); assay: biochemical; format: biochemical, influenza A virus (A/WSN/33)
T2 construct: pre-incubated for 45 minutes with influenza A virus (A/WSN/33; 9×10^3 PFU); host or cells: whole virus particles (PFU-titred virus stock)
T2 sequence (P03470 whole entry): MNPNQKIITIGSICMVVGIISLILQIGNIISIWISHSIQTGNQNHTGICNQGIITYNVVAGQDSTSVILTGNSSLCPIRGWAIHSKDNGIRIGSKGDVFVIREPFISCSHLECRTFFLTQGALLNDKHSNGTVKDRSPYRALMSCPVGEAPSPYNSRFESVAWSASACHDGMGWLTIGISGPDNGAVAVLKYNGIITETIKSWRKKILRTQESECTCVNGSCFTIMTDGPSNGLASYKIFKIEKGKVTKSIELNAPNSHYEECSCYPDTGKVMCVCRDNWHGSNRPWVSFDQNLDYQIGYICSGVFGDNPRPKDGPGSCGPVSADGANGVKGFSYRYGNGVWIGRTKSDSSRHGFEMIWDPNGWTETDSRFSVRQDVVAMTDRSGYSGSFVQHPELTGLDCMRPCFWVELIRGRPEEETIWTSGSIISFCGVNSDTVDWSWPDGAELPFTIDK

[5] = test system: influenza A virus (A/WSN/33); assay: ELISA virus capture on streptavidin coated plate; format: binding
[6] = molecular target: Bovine serum albumin (BSA) (Bos taurus, UniProt P02769); assay: Western blot analysis, negative control protein; format: binding; conditions: BSA 0.65 μg/μl with 200 μM, 4° C.
Sequence of Bovine serum albumin (BSA) (P02769 25-607): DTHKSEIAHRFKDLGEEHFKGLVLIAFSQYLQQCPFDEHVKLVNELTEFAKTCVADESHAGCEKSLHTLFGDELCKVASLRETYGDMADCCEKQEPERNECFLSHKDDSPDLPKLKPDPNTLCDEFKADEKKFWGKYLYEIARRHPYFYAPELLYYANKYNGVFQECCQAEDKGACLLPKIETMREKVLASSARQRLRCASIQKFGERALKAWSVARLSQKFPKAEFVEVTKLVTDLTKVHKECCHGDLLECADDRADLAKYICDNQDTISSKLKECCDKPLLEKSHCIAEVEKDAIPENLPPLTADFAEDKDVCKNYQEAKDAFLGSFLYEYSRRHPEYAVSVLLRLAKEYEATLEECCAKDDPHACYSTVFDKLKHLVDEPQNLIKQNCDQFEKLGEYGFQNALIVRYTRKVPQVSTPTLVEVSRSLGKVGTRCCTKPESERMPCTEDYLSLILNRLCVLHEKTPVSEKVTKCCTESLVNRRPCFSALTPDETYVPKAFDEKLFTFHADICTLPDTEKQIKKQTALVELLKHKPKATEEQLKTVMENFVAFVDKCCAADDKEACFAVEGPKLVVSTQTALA

[7] = test system: influenza A virus; assay: ELISA capturing experiment with neuraminidase active site blocked by zanamivir; format: binding; conditions: compound 1 667 μM, zanamivir 67 μM pre-incubation 45 minutes, 9×10^3 PFU, optical density
[8] = molecular target: T1, Athrobacter ureafaciens neuraminidase; assay: Western blot analysis of covalent binding (biotinylation) of neuraminidase; conditions: 200 μM, 4° C., ammonium acetate buffer 100 mM; bands of 88, 66 and 52 KDa
[9] = molecular target: Vibro cholerae neuraminidase (Vibrio cholerae serotype O1, UniProt P0C6E9); assay: biochemical; format: biochemical; conditions: for inhibitory effect on neuraminidase activity: pH 6.5
Sequence of Vibro cholerae neuraminidase (P0C6E9 25-781): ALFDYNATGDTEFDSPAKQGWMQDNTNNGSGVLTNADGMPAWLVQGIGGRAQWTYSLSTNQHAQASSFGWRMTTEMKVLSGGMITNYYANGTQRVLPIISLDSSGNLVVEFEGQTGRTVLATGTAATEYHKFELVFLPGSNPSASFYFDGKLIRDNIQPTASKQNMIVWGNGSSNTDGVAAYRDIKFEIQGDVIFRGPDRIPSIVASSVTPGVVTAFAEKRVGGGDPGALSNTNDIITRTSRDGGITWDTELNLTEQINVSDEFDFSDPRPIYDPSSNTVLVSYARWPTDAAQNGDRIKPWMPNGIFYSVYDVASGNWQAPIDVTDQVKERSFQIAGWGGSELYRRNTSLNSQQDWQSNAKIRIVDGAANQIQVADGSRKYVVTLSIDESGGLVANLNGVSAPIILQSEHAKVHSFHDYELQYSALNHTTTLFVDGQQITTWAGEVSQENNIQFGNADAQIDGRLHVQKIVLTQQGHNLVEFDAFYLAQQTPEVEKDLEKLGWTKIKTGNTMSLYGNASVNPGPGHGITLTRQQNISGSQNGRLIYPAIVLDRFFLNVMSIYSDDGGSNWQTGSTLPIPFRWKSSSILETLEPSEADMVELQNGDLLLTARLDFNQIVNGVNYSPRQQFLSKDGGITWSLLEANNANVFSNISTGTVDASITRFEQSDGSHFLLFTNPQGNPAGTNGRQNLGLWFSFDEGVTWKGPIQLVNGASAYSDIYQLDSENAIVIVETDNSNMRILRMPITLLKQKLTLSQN

Sequence of Clostridium perfringens neuraminidase (P10481 whole entry, looked up): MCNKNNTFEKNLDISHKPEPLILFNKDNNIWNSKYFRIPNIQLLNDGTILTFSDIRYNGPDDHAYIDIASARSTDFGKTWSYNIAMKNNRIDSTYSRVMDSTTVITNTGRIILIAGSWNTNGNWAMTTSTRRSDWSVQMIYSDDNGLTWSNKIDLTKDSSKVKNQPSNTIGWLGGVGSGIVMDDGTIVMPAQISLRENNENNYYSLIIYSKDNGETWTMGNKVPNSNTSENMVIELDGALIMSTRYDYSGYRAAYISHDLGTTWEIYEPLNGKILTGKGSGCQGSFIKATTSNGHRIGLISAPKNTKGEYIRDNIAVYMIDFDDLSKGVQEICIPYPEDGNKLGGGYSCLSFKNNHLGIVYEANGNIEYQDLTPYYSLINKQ

CC(=O)N[C@@H]1C(O)CC(Oc2ccc(NC(=O)CCC(=O)NCCCCCCNC(=O)CCCCC3SCC4NC(=O)NC43)cc2C(F)F)(C(=O)O)OC1[C@H](O)[C@H](O)CO (stereo partly drawn) [compound 1]
inhibitory effect on neuraminidase activity [1]: significant inhibitory effect
capture of JEV from a mixture with influenza A virus [2]: not JEV
inhibitory effect on neuraminidase activity [3]: significant inhibitory effect
IC50 [4]: 1.7 mM
inhibitory effect on neuraminidase activity ([4]; pH 6.5): significant inhibitory effect
capture of influenza A virus on plate wells ([5]; 5 nmol on streptavidin coated plate, virus 3.8×10^2-970×10^2 PFU, anti-Flu A antibody detection): successfully captured influenza A virus
capture of influenza A virus from a mixture with JEV ([5]; mixture of influenza A virus and JEV, anti-Flu A antibody): captured and detected
bands on the PVDF membrane [6]: no band was observed
capture of influenza A virus relative to influenza A virus pretreated with zanamivir [7]: 14 folds
bands on the PVDF membrane (biotinylated neuraminidase isoenzymes) [8]: three bands
IC50 [9]: 0.53 mM
inhibitory effect on neuraminidase activity [9]: significant inhibitory effect

CC(=O)N[C@H]1[C@H]([C@H](O)[C@H](O)CO)OC(C(=O)O)=C[C@@H]1N=C(N)N [zanamivir, reference compound]
inhibitory effect on neuraminidase activity [1]: only weak inhibitory effect
inhibitory effect on neuraminidase activity [3]: only weak inhibitory effect
inhibitory effect on neuraminidase activity [9]: only weak inhibitory effect
